Type in all cases: in vivo
Data set [1] can be described thus: Biliary excretion after intraduodenal injection (enterohepatic circulation). On the procedure:
In another group of experiments, FITC-GC was injected intraduodenally and bile samples collected for a period of two hours. More than 90% of the injected conjugate was excreted in the bile. […] It is these characteristics of fluoresceintly labelled bile acids which make them valuable as diagnostic agents and research tools.

Data set [2] can be described thus: Liver blood flow measurement by plasma elimination of injected FITC-GC. Particulars: 9 kg dog. On the procedure:
The use of FITC bile acid for measuring liver blood flow has been tested in a dog. The following experimental protocol was followed.
15 μmoles of FITC-labelled glycocholic bile acid (FITC-GC) in 2 ml normal saline were injected into a 9 kg dog. Serial blood samples were taken into heparinized containers at 2, 4, 6, 8, and 10 minutes following the initial injection. The samples were then centrifuged for 5 minutes and the plasma collected. The concentration of FITC-GC in each plasma sample was measured with a PERKIN-ELMERS* spectrophlourimeter, using a previously determined calibration curve for FITC-GC solutions in plasma.
Therefore plasma clearance was calculated as [formula] M-amount of material injected and k=const. (k=1 for 100% extraction, 0.9 for 90% extraction), thus [formula] where [formula] is the slope of the line for concentration vs. time plot on a semi-log paper, and Co is the initial concentration (log Co is determined as an intercept of the plot with the concentration axis). For the purpose of calculating plasma clearance, k was assumed to equal 0.9.
Liver blood flow was then calculated from the plasma clearance value using the previously determined blood hematocrit (Htc) value as follows: [formula]

Data set [3] relates to hamsters. The experiment in a line: Effects on bile flow, sinusoidal blood flow, blood pressure and heart rate (hamsters). As to conditions: compared with equimolar amounts of sodium glycocholate.
For data set [4], the system named is rats. Description: Effects on bile flow, sinusoidal blood flow, blood pressure and heart rate (rats). As to conditions: compared with equimolar amounts of sodium glycocholate.

Molecules are shown by their SMILES.

In the case of `C[C@H](CCC(=O)NCC(=O)O)[C@H]1CC[C@H]2[C@@H]3[C@H](O)C[C@@H]4C[C@H](OC(=S)Nc5ccc6c(c5)C5(OC6=O)c6ccc(O)cc6Oc6cc(O)ccc65)CC[C@]4(C)[C@H]3C[C@H](O)[C@]12C` [FITC-GC, fluorescein isothiocyanate-sodium glycocholate], the dose excreted at 2 h in data set [1] (injected intraduodenally, bile collected for two hours, read-out: injected conjugate excreted in the bile) was more than 90%. In addition, the enterohepatic circulation entry in data set [1] (intraduodenal injection and reinjection of bile) was “undergoes an enterohepatic circulation”. For the same compound, in data set [1] (reinjection into the duodenum of the bile collected), the “elimination of the injected conjugate via bile after reinjection of collected bile” value is recorded as “almost complete elimination”. The compound further gave a liver blood flow in data set [2] (15 μmoles FITC-GC injected in 2 ml normal saline, samples at 2-10 minutes, k assumed 0.9, corrected for hematocrit) of 194 mL/min. For the same compound, in data set [2] (15 μmoles injected, 2, 4, 6, 8 and 10 minutes), the “concentration values in plasma serial samples (decline)” value is on record as “monoexponential decline”. In data set [3], the “effect on bile flow” value is reported as “the same effects”, the “effect on blood pressure” value is reported as “the same effects”, the “effect on heart rate” value is given as “the same effects” and the “effect on sinusoidal blood flow” value is listed as “the same effects”. In data set [4], the “effect on bile flow” value is reported as “the same effects”, the “effect on blood pressure” value is on record as “the same effects”, the “effect on heart rate” value was “the same effects” and the “effect on sinusoidal blood flow” value is reported as “the same effects”.

The values are drawn from patent US4848349A, “Substance and method for measuring hepatic blood flow” (priority 1987, dated 1989).
